Experimental data reported in PubChem BioAssay (NCI).
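Interpolation was linear, between the two tested concentrations surrounding the appropriate level; five concentrations were tested over 48 hours in 96-well plates. The concentration for 50% growth inhibition is given as GI50. At the TGI there is no net growth.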

What was measured:
Test in all cases: DTP human tumour cell line panel, 48 h
NCI-H226 lung = system: NCI-H226 lung
NCI/ADR-RES ovarian = system: NCI/ADR-RES ovarian
MDA-MB-231 breast = system: MDA-MB-231 breast
TK-10 renal = system: TK-10 renal
LOX IMVI melanoma = system: LOX IMVI melanoma
RPMI-8226 leukemia = system: RPMI-8226 leukemia
HS 578T breast = system: HS 578T breast
HCT-116 colon = system: HCT-116 colon
IGROV1 ovarian = system: IGROV1 ovarian
MALME-3M melanoma = system: MALME-3M melanoma

Compound	GI50 (NCI-H226 lung) [µM]	TGI (NCI-H226 lung) [µM]	GI50 (NCI/ADR-RES ovarian) [µM]	TGI (NCI/ADR-RES ovarian) [µM]	GI50 (MDA-MB-231 breast) [µM]	TGI (MDA-MB-231 breast) [µM]	GI50 (TK-10 renal) [µM]	TGI (TK-10 renal) [µM]	GI50 (LOX IMVI melanoma) [µM]	TGI (LOX IMVI melanoma) [µM]	GI50 (RPMI-8226 leukemia) [µM]	TGI (RPMI-8226 leukemia) [µM]	GI50 (HS 578T breast) [µM]	TGI (HS 578T breast) [µM]	GI50 (HCT-116 colon) [µM]	TGI (HCT-116 colon) [µM]	GI50 (IGROV1 ovarian) [µM]	TGI (IGROV1 ovarian) [µM]	GI50 (MALME-3M melanoma) [µM]	TGI (MALME-3M melanoma) [µM]
CCOC(=O)C(=Cc1cccc(Cl)c1)C(=O)OCC	2.49	6.18	3.3	16.9	2.35	5.04	2.46	6.08	1.65	3.12	2.1	5.32	4.29	29.8	1.82	3.83	2.4	7.85		
COc1ccc(-c2oc(=O)ccc2-c2cc(OC)c(OC)c(OC)c2)cc1F	66.4	> 100	11	> 100	16	> 100	39.4	> 100	10.9	> 100	11.1	61.4	23.9	> 100	10.9	> 100			3.24	> 100
Cc1nc2ccccc2nc1-c1ccc(N=[N+]([O-])c2ccc(-c3nc4ccccc4nc3C)cc2)cc1		> 100		> 100		> 80.2		50.5		> 100		> 100		> 95.9		> 100		> 100		> 100
O=C(c1ccc(Cl)cc1)c1cnc(Nc2ccccc2Cl)s1		> 64.3				> 100		34.9		> 100		> 100		68.8		41.7		74.2		46.7
COc1ccc2[nH]cc(-c3nc(-c4c[nH]c5ncccc45)cs3)c2c1	3.93	> 100	3.75	> 100	2.21	> 100	5.47	> 100	2.83	> 100	4.76	> 100	4.17	> 100	2.9	21	5.46	> 100	4.95	> 100
C1CSCCSCCS1				> 100		> 100		> 100		> 100		> 100				> 100		> 100		
Cc1ccc(Cl)cc1Nc1nc(C(F)(F)F)ccc1C(=O)N1CCN(c2cccc(Cl)c2)CC1	> 100	> 100	> 100	> 100	30.5	> 100	> 100	> 100	> 100	> 100	33.2	> 100	47.9	> 100	37.9	> 100	39.2	> 100	> 100	> 100
Oc1cc(O)c2c(c1)OC(c1ccc(O)c(O)c1)C(OC1(c3cc(O)c(O)c(O)c3)Oc3cc(O)cc(O)c3C(O)C1O)C2 (stereo unspecified)		50.9		99.9		45.8		> 100		38.4		49.5		> 86.1		62		> 86.2		> 100
O=C(CC(O)(C(F)(F)F)C(F)(F)F)c1cc(CC(=O)C(O)(C(F)(F)F)C(F)(F)F)cc(CC(=O)C(O)(C(F)(F)F)C(F)(F)F)c1		> 6.85		> 6.65		3.3		8.36		2.81		> 10		> 10		2.56		4.15		6.33
Cn1cnc([N+](=O)[O-])c1S(=O)(=O)Oc1ccccc1	19.8	60	21.7	> 65.8	15.5	47.9	1.99	3.81	3.3	9.9	4.69	17.6	24.6	> 80.5	5.37	13.2	2.21	4.76	2.14	4.32
Nc1nccc2c1ccn2-c1ccc(NC(=O)c2ccc(N3CCOCC3)c(C(F)(F)F)c2)cc1	5.62	20	4.87	50.9	0.346	1.47	1.52	9.75	0.331	1.48	0.311	2.88	0.22	0.88	0.873	11.1	1.56	30.4	1.58	6.71
Nc1c(C(=O)Nc2cccc(Br)c2)sc2nc3c(cc12)C(=O)CCC3	16.8	> 100	0.475	> 100	1.68	61.1	13.9	> 100			> 49.9	> 100	0.597	83.5	0.534	> 100	1.73	> 100	0.579	> 100
CC1=CC(=O)[C@@H](O)[C@]2(C)[C@H]3[C@@]4(O)OC[C@]35[C@H]([C@@H](C)[C@H]4O)[C@@H](O)C(=O)O[C@@H]5C[C@@H]12		0.694		22.6		1.44		7.76		0.62		> 100		1.19		0.288		3.42		0.445
COc1cc(C2c3cc4c(cc3C(O)C(CO)C2CO)OCO4)cc(OC)c1OC (stereo unspecified)	7.47	> 100	21.5	> 100	3.69	> 100	> 23.2	> 100	0.656	> 100	1.59	> 100	0.623		0.492	> 100	0.551	> 25.9		
C=CCCCCCCCCCCC1(O)C=CC2=[N+](CCCCCN=C(N)N)CCCN21 (stereo unspecified)	3.86	21	22.2	85.6	9.98	30.2	1.33	4.56	6.3	26	2.61	29.5	3.82	13.1	12.4	> 45.2	10.9	30.1	2.52	10.9
CCCCCCC[CH2][Sn]1([CH2]CCCCCCC)[O]C(=O)c2cccnc2[S]1	> 100	> 100					> 100	> 100	> 100	> 100	> 100	> 100			> 100	> 100	> 100	> 100	> 100	> 100
CCc1cccc(C)c1NC(=O)C(=O)Cc1nc2ccccc2o1		> 100						> 100		> 100		> 100				> 100		> 100		> 100

Compound	GI50 (NCI-H226 lung) [µM]	TGI (NCI-H226 lung) [µM]	GI50 (NCI/ADR-RES ovarian) [µM]	TGI (NCI/ADR-RES ovarian) [µM]	GI50 (MDA-MB-231 breast) [µM]	TGI (MDA-MB-231 breast) [µM]	GI50 (TK-10 renal) [µM]	TGI (TK-10 renal) [µM]	GI50 (LOX IMVI melanoma) [µM]	TGI (LOX IMVI melanoma) [µM]	GI50 (RPMI-8226 leukemia) [µM]	TGI (RPMI-8226 leukemia) [µM]	GI50 (HS 578T breast) [µM]	TGI (HS 578T breast) [µM]	GI50 (HCT-116 colon) [µM]	TGI (HCT-116 colon) [µM]	GI50 (IGROV1 ovarian) [µM]	TGI (IGROV1 ovarian) [µM]	GI50 (MALME-3M melanoma) [µM]	TGI (MALME-3M melanoma) [µM]
CCOc1ccc2nc(S/C(=C/C=C(C#N)C#N)c3ccc(C)cc3)sc2c1	20.3	42.4	24	50.7	17.8	43.4	27.2	94.6	9.87	23.9			32.2	88.4	17.3	31.6	54.5	> 100	33	> 100
COC12C=C/C(=C(/C(=O)OCc3ccncc3)C(=O)CCCCCCCCC3(OC)C=C/C(=C(/C(=O)OCc4ccncc4)C(=O)CCCCCCCC1)O3)O2			0.774	3.93	0.686	6.51	1.6	3.67	0.107	0.264	0.196	1.1	1.75	15.4	0.111	0.239	0.316	2.14		
CCN(CC)CCOc1ccc(/C=C2\CC3C4CC=C5C[C@@H](O)CC[C@]5(C)C4CC[C@]3(C)C2=O)cc1OC (stereo partly specified)	2.77	8.77	16.2	56.1	2.31	7.38	9.94	21.5					5.62	33.7	2.44	8.79	2.94	7.72	2.01	12.3
COC1C(O)=C2C(=O)O/C(C)=C/C=C/C=C/C=C\CC(c3ccccc3)NC(=O)\C=C/C=C\C=C\C=C\[C@@]2(C)[C@@H]1O (stereo partly specified)		0.273				0.0896		0.272		1.09		0.0445		0.0395		0.0198		0.287		0.329
O=c1[nH]c(=O)n(C2CC(O)C(CO)O2)cc1CO (stereo unspecified)	> 100	> 100	> 100	> 100			> 100	> 100	> 100	> 100	> 100	> 100	> 100	> 100	> 100	> 100	> 100	> 100	> 100	> 100
O=c1cc2oc3cc(O)c(O)cc3c(-c3ccccc3O)c-2cc1O	14.4	> 100	8.16	42	10.2	> 100	21.9	> 100	4.84	34.2					3.81	21.9	6.73	> 100	53	> 100
O=c1[nH]cc(COCCO)c(=O)[nH]1		> 100						> 100		> 100		> 100				> 100		> 100		> 100
O=C1c2ccccc2C2(O)c3cc4ccccc4cc3OC12O (stereo unspecified)		> 100						> 100		> 100		> 100				> 100		> 100		> 100
COc1ccc(-c2cc(-c3ccccc3)c(C#N)c(=O)n2C2OC(CO)C(O)C(O)C2O)cc1 (stereo unspecified)		> 100						> 100		> 100		> 100				> 100		> 100		> 100
Cc1c(Cl)cccc1N1C(=O)C(Cl)=C(Cl)C1=O		> 100						> 100		> 100		> 89.8				> 100		> 100		> 100
O=C(NCCCCN=c1cccccc1NCCCCNC(=O)OCc1ccccc1)OCc1ccccc1		32.1						53.9		30		32.8				25		54.1		40.6
COc1ccc(/C(=N\NC(=O)C(N)=O)C(c2ccc(OC)cc2)C2(O)C(=O)Nc3c(Cl)cccc32)cc1 (stereo unspecified)		> 100						> 100		> 100		> 100				> 100		> 100		> 100
CC(=O)n1c2c(c(=O)n1-c1ccccc1)S(=O)CCC2 (stereo unspecified)		> 100						> 100		> 100		27.9				> 100		> 100		> 100
CCOC(=O)C(C)(C)Oc1ccc2c(C)c(-c3ccc(Cl)cc3)c(=O)oc2c1		80.6						> 100		> 100		> 100				> 100		> 100		> 100
COc1ccncc1C#Cc1cncc(C(=O)Nc2ccc(CN3CCN(C)CC3)c(C(F)(F)F)c2)c1	4.6	> 100	33.4	> 100	7.71	85.4	47.1	> 100	5.79	25.7			7.75	52.5	6.72	> 100	8.57	84.2	4.3	23.3
CC(=O)OC12c3ccccc3-c3ccccc3C1C1C(=O)N(C)C(=O)C12Cl (stereo unspecified)		> 10		> 10		> 10		> 10		> 10		> 10		> 10				> 10		> 10
COC(=O)[C@]1(C)CCCC2(C)C1CC[C@H]1C=C(C)[C@H]3CCC12C3 (stereo partly specified)		> 100						> 100		> 100		> 100				> 100		> 100		> 100
